Laboratory results published in PMC4503431, “Impaired Itching Perception in Murine Models of Cholestasis Is Supported by Dysregulation of GPBAR1 Signaling” (PLoS ONE, 2015).

Legend:
GPBAR1 (TGR5) = molecular target: T1, GPBAR1 (TGR5) (Homo sapiens, UniProt Q8TDU6); assay: CRE-luciferase transactivation in HEK293T cells transfected with human GPBAR1; type: cell-based
T1 construct: pCMVSPORT6-human GPBAR1
T1 sequence (Q8TDU6 1-330): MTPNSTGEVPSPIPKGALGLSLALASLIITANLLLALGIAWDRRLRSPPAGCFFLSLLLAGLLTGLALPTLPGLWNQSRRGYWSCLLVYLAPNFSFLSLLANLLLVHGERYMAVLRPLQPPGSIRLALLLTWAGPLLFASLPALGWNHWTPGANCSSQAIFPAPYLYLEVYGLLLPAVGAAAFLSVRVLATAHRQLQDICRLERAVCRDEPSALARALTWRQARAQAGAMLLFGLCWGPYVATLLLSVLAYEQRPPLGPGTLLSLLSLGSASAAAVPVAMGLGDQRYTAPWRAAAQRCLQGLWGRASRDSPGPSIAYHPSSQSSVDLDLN

[1] = molecular target: T2, farnesoid X receptor (FXR) (Homo sapiens, UniProt Q96RI1); assay: FXRE (hsp27 IR1) luciferase transactivation in HepG2 cells transfected with FXR and RXR; type: cell-based
T2 construct: gene NR1H4; pSG5-FXR; with RXR (pSG5-RXR cotransfected)
T2 sequence (Q96RI1 1-486): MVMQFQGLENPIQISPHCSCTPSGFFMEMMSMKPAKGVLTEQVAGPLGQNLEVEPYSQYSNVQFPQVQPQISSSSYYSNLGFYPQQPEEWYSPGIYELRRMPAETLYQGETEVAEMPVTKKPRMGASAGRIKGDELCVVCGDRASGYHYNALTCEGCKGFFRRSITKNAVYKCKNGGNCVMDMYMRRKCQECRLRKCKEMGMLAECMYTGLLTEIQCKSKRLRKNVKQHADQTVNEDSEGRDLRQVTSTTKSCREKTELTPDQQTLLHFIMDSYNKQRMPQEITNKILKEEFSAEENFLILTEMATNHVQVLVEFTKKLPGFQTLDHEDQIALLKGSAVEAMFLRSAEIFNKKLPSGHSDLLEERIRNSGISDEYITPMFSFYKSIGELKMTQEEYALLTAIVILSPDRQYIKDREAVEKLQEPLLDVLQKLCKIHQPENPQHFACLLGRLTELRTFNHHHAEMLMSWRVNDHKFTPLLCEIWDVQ
T2 sequence (P19793 1-462 partner): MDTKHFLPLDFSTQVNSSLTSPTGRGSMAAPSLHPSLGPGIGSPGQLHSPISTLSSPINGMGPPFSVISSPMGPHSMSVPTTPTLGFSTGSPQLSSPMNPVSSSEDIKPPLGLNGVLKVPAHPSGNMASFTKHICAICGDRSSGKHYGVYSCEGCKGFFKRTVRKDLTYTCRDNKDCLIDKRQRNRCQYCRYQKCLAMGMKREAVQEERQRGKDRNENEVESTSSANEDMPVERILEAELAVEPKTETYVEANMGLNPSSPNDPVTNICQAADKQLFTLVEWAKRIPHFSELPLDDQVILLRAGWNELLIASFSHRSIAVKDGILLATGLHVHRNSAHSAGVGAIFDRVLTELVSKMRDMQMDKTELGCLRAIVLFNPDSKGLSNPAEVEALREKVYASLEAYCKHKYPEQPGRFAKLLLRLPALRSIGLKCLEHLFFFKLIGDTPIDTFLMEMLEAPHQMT

Which EC50 (GPBAR1 (TGR5)) does the source give for `CC[C@H]1[C@@H](O)[C@@H]2[C@H](CC[C@]3(C)[C@@H]([C@H](C)CCO)CC[C@@H]23)[C@@]2(C)CC[C@@H](O)C[C@@H]12` [BAR502, 6α-ethyl-3α, 7α-dihydroxy-24-nor-5β-cholan-23-ol] here?
Its EC50 is 400 ± 100 nM.

And the EC50 [1]?
Its EC50 is 2000 ± 200 nM.
